# Results: patent publication EP4509511A1, “SUBSTITUTED SPIRO-ISOXAZOLINYL LACTAMS, SALTS THEREOF AND THEIR USE AS HERBICIDALLY ACTIVE SUBSTANCES” (Bayer Aktiengesellschaft, priority 2023, dated 2025)
# How the values were obtained:
# ECHCG = assay: Herbicidal pre-emergence action - Part I; type: in vivo, Echinochloa crus-galli; details: visual grading after ca. 3 weeks vs untreated controls
# Procedure, shortened: (§1)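 Pre-emergence soil-surface spray, 1280 g/ha or lower, WP/EC formulations plus 0.5% additive, 600 l/ha water. Pots of sandy loam, double sowing mono/dicot weeds. Greenhouse, optimum conditions; % herbicidal effect scored visually at ~3 wk, 100% = plants died, 0% = as control.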
# MATIN = assay: Herbicidal pre-emergence action - Part I; type: in vivo, Matricaria inodora; details: visual grading after ca. 3 weeks vs untreated controls
# Procedure, shortened: as §1
# SETVI = assay: Herbicidal pre-emergence action - Part I; type: in vivo, Setaria viridis; details: visual grading after ca. 3 weeks vs untreated controls
# Procedure, shortened: as §1
# STEME = assay: Herbicidal pre-emergence action - Part I; type: in vivo, Stellaria media; details: visual grading after ca. 3 weeks vs untreated controls
# Procedure, shortened: as §1
# POAAN [1] = assay: Herbicidal pre-emergence action - Part I; type: in vivo, Poa annua; details: visual grading after ca. 3 weeks vs untreated controls
# Procedure, shortened: as §1
# AMARE [2] = assay: Herbicidal pre-emergence action - Part I; type: in vivo, Amaranthus retroflexus; details: for pre-emergence activity at 320g/ha against AMARE in % / pre-emergence activity at 1280g/ha against AMARE in %: visual grading after ca. 3 weeks vs untreated controls
# Procedure, shortened: as §1
# ALOMY = assay: Herbicidal pre-emergence action - Part I; type: in vivo, Alopecurus myosuroides; details: visual grading after ca. 3 weeks vs untreated controls
# From the text: (§2) Seeds of mono- and dicotyledonous weed plants were sown in plastic pots (double sowings with one species of mono- and one species of dicotyledonous weed plants per pot), in sandy loam, and covered with soil. The compounds according to the invention, formulated in the form of wettable powders (WP) or as emulsifiable concentrates (EC), were applied to the surface of the covering soil as aqueous suspension or emulsion, with the addition of 0.5% of an additive, at an application rate of 600 1 of water per hectare (converted). Following treatment, the pots were placed in a greenhouse and kept under optimum growth conditions for the test plants. The visual grading of the damage to the test plants was carried out after ca. 3 weeks in comparison to untreated controls (herbicidaleffectinpercent(%):100%effect=plantshavediedoff,0%effect=ascontrolplants). [formula]
# (§3) Tables A1 to A12, below, show the effects of selected compounds of the general formula (I) according to table 1 on various harmful plants and an application rate corresponding to 1280 g/ha or below obtained by the experimental procedure mentioned above. Table A1: pre-emergence activity at 1280g/ha against ABUTH in %
# KCHSC = assay: Herbicidal pre-emergence action - Part I; type: in vivo, Kochia scoparia; details: 1280 g/ha
# Procedure, shortened: as §1
# POAAN [3] = assay: Herbicidal post-emergence action - Part I; type: in vivo, Poa annua; details: 1280 g/ha, one-leaf stage, rated visually after about 3 weeks vs untreated controls
# Procedure, shortened: (§4)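 Greenhouse weeds grown in sandy loam were sprayed post-emergence at the one-leaf stage, 2-3 weeks after sowing. Compounds were applied as WP or EC in water with 0.5% additive at 600 L/ha, at 1280 g/ha or below. Visual damage was rated after about 3 weeks versus untreated plants (0-100%).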
# AMARE [4] = assay: Herbicidal post-emergence action - Part I; type: in vivo, Amaranthus retroflexus; details: one-leaf stage, rated visually after about 3 weeks vs untreated controls
# Procedure, shortened: as §4
# TRZAS = assay: Pre-emergence effects on crop plants; type: in vivo, Triticum aestivum; details: crop plant
# From the text: (§5) Seeds of mono- and dicotyledonous weed plants and crop plants were sown, in plastic or organic planting pots, in sandy loam and covered with soil. The compounds according to the invention, formulated in the form of wettable powders (WP) or as emulsifiable concentrates (EC), were applied to the surface of the covering soil as aqueous suspension or emulsion, with the addition of 0.5% of an additive, at an application rate of 600 1 of water/ha (converted). Following treatment, the pots were placed in a greenhouse and kept under optimum growth conditions for the test plants. The visual grading of the damage to the test plants was carried out after ca. 3 weeks in comparison to untreated controls (herbicidal effect in percent (%): 100% effect = plants have died off, 0% effect = as control plants). Tables D1 to D5 below show the effects of various compounds of the general formula (I) according to Table 1 on various crop plants and an application rate corresponding to 320 g/ha or below obtained by the experimental procedure mentioned above in Biological Examples, Section C. Table […]: pre-emergence activity at 320g/ha against ZEAMX in %
# GLXMA = assay: Pre-emergence effects on crop plants; type: in vivo, Glycine max; details: crop plant
# From the text: as §5
# ZEAMX = assay: Post-emergence effects on crop plants; type: in vivo, Zea mays; details: crop plant
# Procedure, shortened: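 Crop plants were grown in sandy loam in the greenhouse and sprayed at the single-leaf stage, 2–3 weeks after sowing, with WP or EC formulations plus 0.5% additive in 600 l water/ha, at rates of 320 g/ha or below. Injury was scored visually about 3 weeks later as % effect versus untreated controls (100% = plants dead).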
# BRSNW [5] = assay: Post-emergence effects on crop plants; type: in vivo, Brassica napus; details: crop plant
# From the text: Seeds of mono- and dicotyledonous weed plants and crop plants were sown, in plastic or organic planting pots, in sandy loam, covered with soil and grown in a greenhouse under controlled growth conditions. 2 to 3 weeks after sowing, the test plants were sprayed in the single-leaf stage. The compounds according to the invention, formulated in form of wettable powders (WP) or as emulsifiable concentrates (EC), were sprayed onto the green plant parts as aqueous suspension or emulsion, with the addition of 0.5% of an additive, at an application rate of 600 1 of water/ha (converted). The test plants were placed in the greenhouse for ca. 3 weeks under optimum growth conditions, and then the effect of the preparations was assessed visually in comparison with untreated controls (herbicidal effect in percent (%): 100% effect = plants have died off, 0% effect = as control plants). Tables F1 to F5 below show the effects of selected compounds of the general formula (I) according to table 1 on various crop plants and an application rate corresponding to 320 g/ha or below obtained by the experimental procedure mentioned above. Table […]: post-emergence activity at 5g/ha against ZEAMX in %
# VERPE = assay: Herbicidal pre-emergence action - Part I; type: in vivo, Veronica persica; details: visual grading after ca. 3 weeks vs untreated controls
# From the text: as §2, §3
# BRSNW [6] = assay: Pre-emergence effects on crop plants; type: in vivo, Brassica napus; details: 80 g/ha; Table D5; crop plant
# From the text: as §5
# [7] = Table A10a, visual grading after ca. 3 weeks vs untreated controls
# [8] = 80 g/ha, table titled F4c (BRSNW)
Structure (SMILES),pre-emergence activity at 320g/ha against ECHCG in % (ECHCG),pre-emergence activity at 1280g/ha against ECHCG in % (ECHCG),pre-emergence activity at 320g/ha against MATIN in % (MATIN),pre-emergence activity at 1280g/ha against MATIN in % (MATIN),pre-emergence activity at 320g/ha and against SETVI in % (SETVI),pre-emergence activity at 1280g/ha and against SETVI in % (SETVI),pre-emergence activity at 320g/ha against STEME in % (STEME),pre-emergence activity at 1280g/ha against STEME in % (STEME),pre-emergence activity at 320g/ha and against POAAN in % (POAAN [1]),pre-emergence activity at 1280g/ha and against POAAN in % (POAAN [1]),pre-emergence activity at 320g/ha against AMARE in % (AMARE [2]),pre-emergence activity at 1280g/ha against AMARE in % (AMARE [2]),pre-emergence activity at 1280g/ha against ALOMY in % (ALOMY),pre-emergence activity at 1280g/ha against KCHSC in % (KCHSC; 504 h),pre-emergence activity at 1280g/ha against KCHSC in % (KCHSC; [7]),"pre-emergence activity against TRZAS (TRZAS; 80 g/ha, Table D2b)","pre-emergence activity against GLXMA (GLXMA; 80 g/ha, Table D4b)","post-emergence activity against ZEAMX (ZEAMX; 80 g/ha, Table F1c)","post-emergence activity against ZEAMX (ZEAMX; 320 g/ha, Table F1d)",post-emergence activity against BRSNW (BRSNW [5]; [8]),further results
Cc1ccsc1C1=NOC2(CCCN(Cc3c(F)cccc3F)C2=O)C1 (racemic) [Compound I-2],100%,100%,90%,90%,100%,100%,90%,90%,100%,100%,90%,90%,90%,90%,90%,0%,0%,0%,20%,10%,pre-emergence activity at 80g/ha and against SETVI in % (SETVI; 80 g/ha): 100%; pre-emergence activity at 80g/ha against STEME in % (STEME; 80 g/ha): 90%; pre-emergence activity at 80g/ha and against POAAN in % (POAAN [1]; 80 g/ha): 100%; post-emergence activity at 1280g/ha against POAAN in % (POAAN [3]): 90%; post-emergence activity at 1280g/ha against AMARE in % (AMARE [4]): 90%
O=C1N(Cc2ccccc2F)CCC12CC(c1c(F)cccc1F)=NO2 (racemic) [Compound I-10],,100%,90%,90%,90%,100%,90%,90%,90%,100%,90%,90%,,90%,90%,0%,10%,0%,0%,0%,"pre-emergence activity at 80g/ha against AMARE in % (AMARE [2]; 80 g/ha, 504 h): 90%; pre-emergence activity at 1280g/ha against VERPE in % (VERPE): 90%; post-emergence activity at 80g/ha against AMARE in % (AMARE [4]; 80 g/ha): 90%; post-emergence activity at 320g/ha against AMARE in % (AMARE [4]; 320 g/ha): 90%; post-emergence activity at 1280g/ha against AMARE in % (AMARE [4]): 90%; pre-emergence activity against BRSNW (BRSNW [6]): 20%"
"Cc1ccsc1C1=NOC2(CCN(Cc3c(F)cccc3F)C2=O)C1 (racemic) [Compound I-16, 7-(2,6-Difluorobenzyl)-3-(3-methyl-2-thienyl)-1-oxa-2,7-diazaspiro[4.4]non-2-en-6-one]",100%,100%,90%,90%,100%,100%,,90%,100%,100%,90%,90%,90%,,90%,10%,10%,0%,0%,0%,"pre-emergence activity at 1280g/ha against VERPE in % (VERPE): 100%; post-emergence activity at 1280g/ha against POAAN in % (POAAN [3]): 90%; pre-emergence activity against TRZAS (TRZAS; Table D2a, title: 320g/ha, application rate: 80 g/ha): 10%; pre-emergence activity against GLXMA (GLXMA; Table D4a, title: 320g/ha, application rate: 80 g/ha): 20%; pre-emergence activity against BRSNW (BRSNW [6]): 20%; post-emergence activity against BRSNW (BRSNW [5]; table titled F4d (BRSNW), title: 320 g/ha, application rate: 80 g/ha): 0%"
